Two compounds from patent publication US20190030053A1, “COMPOSITION FOR INCREASING EXPRESSION OF PGC-1alpha” (BENEBIOSIS CO., LTD., priority 2016, published 2019) can be followed below.

Molecules are shown by their SMILES. Entries after “also recorded” stand apart in the source; their conditions may differ.

Test [1] deals with PGC-1α and related genes. The experiment in a line: Gene expression by body parts in aging stimulation models. It is filed as in vivo, mouse. The note with it: SAM P1/Sku Slc mice, oral 0.1 mg/kg/day, 12 weeks, organs and skeletal muscles. How it is done: In order to investigate the gene expression changes by body parts by the treatment with SL (3′-SL & 6′-SL) compositions in aging stimulation models, 4-week-old male aging stimulation model mice (SAM P1/Sku Slc) were purchased from Central Lab Animal (Korea). Water was freely accessible, and a commercially available pellet feed (Dooyeul Biotech, Korea) was given for one week. […]
Sialyllactose or DW was orally administered daily. […] The dietary intake and body weight change were measured every 5 days. […]
The gene expression changes by administration of the SL (3′-SL & 6′-SL) compositions were quantitatively compared for eight main organs (heart, hippocampus, brain, spinal cord, lung, liver, spleen, and kidney), three skeletal muscles (soleus muscle, quadriceps femoris muscle, and gastrocnemius muscle), and the like. RNA was extracted by TRIzol agent (Invitrogen). cDNA was synthesized by using RNA, which has been extracted as above and quantified, and a reverse transcription system (Promega, USA). The expression patterns of PGC-1α and related genes were measured by using pre-designed primers and probes (Applied Biosystems; PGC-1α, Mm00447181_m1, GAPDH, and Mm99999915_q1) for the synthesized cDNA and analysis targets (Fndc5, PGC-1α, Erra, UCP1, SOD2, and GPX1). […]

The subject of test [2] is PGC-1α and related genes. The experiment in a line: Gene expression in nerve cell test (Neuro-2a). It is filed as cell-based, mouse. The note with it: Neuro-2a cells, 0.1 mg/ml, 24 hours. How it is done:
Neuroblasts (Neuro-2a, American Type Culture Collection, USA) were cultured in DMEM supplemented with 10% fetal bovine serum, […], and 0.1 mg/mL streptomycin in each well of 6-well plates at 37° C. in 5% CO2/95% atmospheric conditions. Neuro-2a cells correspond to the fast-growing mouse neuroblastoma cell line. After Neuro-2a cells were seeded at a density of 6000 cells per well, SL was added at a concentration of 0.1 mg/ml into the wells showing a confluency of about 5×10^6 cells/ml, followed by incubation for 24 hours under the same conditions. SL (3′-SL or 6′-SL) materials were the same as those described in Example 1. Unless otherwise stated, SL (3′-SL or 6′-SL) and the use concentrations thereof are understood to be the same as those described in Example 1. The negative control group was treated with physiological saline with 1/1000 of the volume of the medium. The cells treated with each sample were incubated at 37° C. for 24 hours, and then washed twice with cool saline solution, and RNA was extracted using TRIzol agent (Invitrogen). The expression patterns of PGC-1α and related genes were measured by using pre-designed primers and probes (Applied Biosystems; PGC-1α, Mm00447181_m1, GAPDH, and Mm99999915_q1) for the synthesized cDNA and analysis targets (Fndc5, PGC-1α, Erra, UCP1, BDNF, SOD2, and GPX1). […]

In a further test the test system is telomerase. The experiment in a line: Telomerase activity (TRAP) in vitro, MASMs of arteriosclerosis models. It is filed as cell-based, mouse. Particulars: MASMs of ApoE−/− control group, cultured 1 day with SL. How it is done:
In FIG. 20, the telomerase activity was measured using TRAP protocol (Wright et al., 1995). In summary, cell pellets were lysed in CHAPS lysis solvent (containing ribonuclease inhibitor), followed by incubation at 4° C. for 30 minutes. Cell extracts ([…]) were TRAPeze reaction mix (telomerase substrate (TS) primer, fluorescent-labeled RP (reverse) primer, control standard template, and sulforhodamine-labeled standard K2 primer). The TS primer was elongated at 30° C. for 30 minutes, and then PCR was performed. The fluorescence of the thus obtained TRAP product was measured using a fluorescent plate reader to quantify telomerase activity. Relative telomerase activity was normalized by the ratio of native […] to sulforhodamine (internal control standard), expressed as a percentage. Fluorescein (M0250) was purchased from Marker Gene Technologies, Inc. H2-dichlorofluorescin diacetate (DCFDA) was purchased from Molecular Probes. MitoSOX™ Red, MitoTracker Green FM, and MitoTracker® Orange CMTMRos (MTO) were purchased from Invitrogen. 10,000× SYBR® Gold dye was purchased from Molecular Probes, Inc. Nuclear/Cytosol fractionation kit (K266-100) was purchased from BioVision. TRAPeze® XL telomerase detection kit (S7707) was purchased from MILLIPORE. Telomere PNA FISH Kit/Cy3 (K5326) was purchased from Dako. […]

For `CC(=O)N[C@H]1[C@H]([C@H](O)[C@H](O)CO)O[C@@](O[C@H]2[C@@H](O)[C@@H](CO)O[C@@H](O[C@H]3[C@H](O)[C@@H](O)C(O)O[C@@H]3CO)[C@@H]2O)(C(=O)O)C[C@@H]1O` (stereo partly drawn) [3′-SL, α-NeuNAc-(2→3)-β-D-Gal-(1→4)-D-Glc], in the test on PGC-1α and related genes [1] (0.1 mg/kg/day), the “expression levels of analysis targets (Fndc5, PGC-1α, Erra, UCP1, SOD2, GPX1) vs control group” value is listed as “significant increases; also recorded: relatively low compared with 6′-SL”. Besides, in the test on PGC-1α and related genes [2], the “expression levels of analysis targets (Fndc5, PGC-1α, Erra, UCP1, BDNF, SOD2, GPX1) vs negative control” value was “significant increases; also recorded: lower than that of 6′-SL”. Further, the “telomerase activity in MASMs (in vitro)” value in the test on telomerase is given as “increased telomerase activity”.

`CC(=O)N[C@H]1[C@H]([C@H](O)[C@H](O)CO)O[C@@](OC[C@H]2O[C@@H](O[C@H]3[C@H](O)[C@@H](O)[C@H](O)O[C@@H]3CO)[C@H](O)[C@@H](O)[C@H]2O)(C(=O)O)C[C@@H]1O` [6′-SL, α-NeuNAc-(2→6)-β-D-Gal-(1→4)-D-Glc]: in the test with PGC-1α and related genes [1], the “expression levels of analysis targets (Fndc5, PGC-1α, Erra, UCP1, SOD2, GPX1) vs control group” value is given as “significant increases”. For the same compound, the “expression levels of analysis targets (Fndc5, PGC-1α, Erra, UCP1, BDNF, SOD2, GPX1) vs negative control” value with PGC-1α and related genes [2] is “significant increases”. Further, the “telomerase activity in MASMs (in vitro)” value in the test on telomerase was “increased telomerase activity”.
